The values that follow come from PubChem BioAssay (NCI).

Some test systems named below: ACHN renal; SF-268 CNS; 786-0 renal; LOX IMVI melanoma; SNB-75 CNS; EKVX NSCLC; HOP-62 NSCLC; SF-295 CNS; COLO 205 colon; SNB-19 CNS.
Test in all cases: NCI anticancer screen, dose series, 48 h

SMILES strings stand for the structures.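 The compound was tested at five concentrations on cells cultured in 96-well plates, with a 48-hour exposure period. GI50 is the concentration that inhibits growth by half. TGI: concentration producing complete growth inhibition.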

On to `C[C@@H]1[C@H]2[C@H](C=C3[C@@H]4CC[C@H]5Cc6nc7c(nc6C[C@]5(C)[C@H]4C[C@@H](O)[C@@]32C)C[C@@H]2CC[C@H]3C4=C[C@@H]5O[C@@]6(CC[C@](C)(CO)O6)[C@@H](C)[C@@]5(O)[C@@]4(C)[C@H](O)C[C@@H]3[C@@]2(C)C7)O[C@]12CCC(C)(C)O2`, for which the GI50 with ACHN renal was 0.843 µM; with SF-268 CNS it was 0.756 µM; in the assay on 786-0 renal, 0.148 µM; in the assay with LOX IMVI melanoma, 0.51 µM; in the assay with SNB-75 CNS it was 0.14 µM; in the assay with EKVX NSCLC, 0.377 µM. In addition, the GI50 with HOP-62 NSCLC is 0.861 µM; with SF-295 CNS it was 0.0698 µM; with COLO 205 colon, 0.292 µM; with SNB-19 CNS, 0.653 µM. Besides, the TGI in the assay with ACHN renal is above 100 µM; in the assay with SF-268 CNS it was 31.6 µM; with 786-0 renal it was 0.752 µM; with LOX IMVI melanoma, 3.6 µM; with SNB-75 CNS, 9.54 µM; in the assay on EKVX NSCLC, 14.1 µM. The TGI in the assay on HOP-62 NSCLC was determined as 5.73 µM; with SF-295 CNS, 0.259 µM; in the assay on COLO 205 colon, 0.926 µM; in the assay with SNB-19 CNS, 7.28 µM.

With `Fc1c[c-]c(-c2ccccn2)c(F)c1.[CH3-].[Pt+2].c1ccc([PH+](c2ccccc2)c2ccccn2)cc1`, the GI50 is 1.2 µM in the assay on ACHN renal; 1.89 µM with SF-268 CNS; 1.93 µM with 786-0 renal; 1.28 µM in the assay on LOX IMVI melanoma; 1.03 µM in the assay on SNB-75 CNS; 1.96 µM in the assay with EKVX NSCLC. Also, the GI50 in the assay on HOP-62 NSCLC was 4.16 µM; with SF-295 CNS, 4.91 µM; in the assay with COLO 205 colon, 1.77 µM; with SNB-19 CNS it was 3.25 µM. The TGI with ACHN renal is 2.49 µM; in the assay with SF-268 CNS, 5.18 µM; in the assay with 786-0 renal, 4.03 µM; in the assay with LOX IMVI melanoma, 2.69 µM; with SNB-75 CNS it was 9.9 µM; in the assay on EKVX NSCLC, 5.52 µM. Besides, the TGI was 44.2 µM with HOP-62 NSCLC, 62.5 µM in the assay with SF-295 CNS, 5.72 µM in the assay with COLO 205 colon and above 100 µM in the assay on SNB-19 CNS.

On to `NC1=NN(c2ccccc2)C(=O)C1/C(=N\NC(=O)c1cc2ccccc2cc1O)C(=O)Nc1nc([N+](=O)[O-])cs1` (centres undefined), for which the TGI in the assay on ACHN renal is above 100 µM; in the assay on SF-268 CNS it was above 100 µM; in the assay on 786-0 renal, above 100 µM; in the assay with LOX IMVI melanoma, 55.4 µM; with SNB-75 CNS it was above 100 µM; in the assay on EKVX NSCLC, above 100 µM. The TGI in the assay on HOP-62 NSCLC was above 100 µM; in the assay on SF-295 CNS, above 100 µM; with COLO 205 colon, 54.8 µM; in the assay on SNB-19 CNS, above 100 µM.

In the case of `OC(COc1cccc2ccccc12)CN1CCN(c2ccc(Cl)cc2)CC1` (centres undefined), the GI50 with ACHN renal is 11.8 µM; in the assay with SF-268 CNS, 19.1 µM; in the assay with 786-0 renal, 16.3 µM; in the assay with LOX IMVI melanoma, 26.3 µM; in the assay on SNB-75 CNS it was 9.76 µM; with EKVX NSCLC, 21.3 µM. In addition, the GI50 is 8.53 µM in the assay on HOP-62 NSCLC, 11.4 µM in the assay with SF-295 CNS, above 100 µM with COLO 205 colon and 17 µM with SNB-19 CNS. Moreover, the TGI in the assay on ACHN renal is above 100 µM; with SF-268 CNS it was 45.5 µM; in the assay on 786-0 renal, 33.1 µM; in the assay on LOX IMVI melanoma it was above 100 µM; in the assay on SNB-75 CNS it was 27.1 µM; in the assay with EKVX NSCLC it was above 100 µM. In addition, the TGI was 29.6 µM in the assay with HOP-62 NSCLC, 36.9 µM in the assay with SF-295 CNS, above 100 µM in the assay with COLO 205 colon and 45.4 µM in the assay on SNB-19 CNS.

Regarding `[C-]#[O+].[C-]#[O+].[Ir].[O-]c1ccc2ccccc2c1N=Nc1ccccc1`, the TGI in the assay on ACHN renal was 13.8 µM; in the assay on SF-268 CNS, 61.5 µM; with 786-0 renal, 12.2 µM; in the assay with LOX IMVI melanoma, 24.6 µM; with SNB-75 CNS, 59.6 µM; with EKVX NSCLC, 49.1 µM. For the same compound, the TGI with HOP-62 NSCLC was above 100 µM; in the assay with SF-295 CNS, above 72.1 µM; in the assay with COLO 205 colon, 3.7 µM; in the assay with SNB-19 CNS, above 70.7 µM. In addition, the GI50 is 22.7 µM with SF-268 CNS, 3.39 µM with 786-0 renal, 19.4 µM in the assay with EKVX NSCLC and 45.9 µM in the assay on SF-295 CNS.

Turning to `COc1ccc2nc3ccccc3c(NCCCCCN(CCCl)CCCl)c2c1`, the TGI with ACHN renal is 0.748 µM; in the assay with SF-268 CNS, 0.329 µM; in the assay on 786-0 renal it was 0.137 µM; in the assay on LOX IMVI melanoma it was 0.376 µM; in the assay on SNB-75 CNS, 0.911 µM; in the assay on EKVX NSCLC, 4.1 µM. The TGI in the assay with HOP-62 NSCLC stood at 0.525 µM; with SF-295 CNS it was 1.21 µM; with COLO 205 colon, 0.429 µM; in the assay on SNB-19 CNS, 0.914 µM.
